Data set [1] in a line: Half life in Sprague-Dawley rat measured at 2 mg/kg, iv for 0.083 to 24 hrs by LC-MS/MS analysis. In kind it is ADME, organism-based. The following applies: in vivo, time 0.083-24 hrs.
Data set [2] in a line: Tmax in Sprague-Dawley rat measured at 2 mg/kg, iv for 0.083 to 24 hrs by LC-MS/MS analysis. Format: ADME, organism-based. The following applies: in vivo, time 0.083-24 hrs.
A short description of data set [3]: AUC (0 to infinity) in Sprague-Dawley rat measured at 2 mg/kg, iv for 0.083 to 24 hrs by LC-MS/MS analysis. In kind it is ADME, organism-based. Details: time lower 0.083 hrs, dose 2 mg/kg, time upper 24 hrs, route iv. Particulars: in vivo.
The nature of data set [4]: MRT (0 to infinity) in Sprague-Dawley rat measured at 2 mg/kg, iv for 0.083 to 24 hrs by LC-MS/MS analysis. In kind it is ADME, organism-based. Particulars: in vivo, time 0.083-24 hrs.
Data set [5] is described as follows: Cmax in Sprague-Dawley rat measured at 10 mg/kg, po for 0.083 to 24 hrs by LC-MS/MS analysis. Particulars: in vivo. In kind it is ADME, organism-based. Details: time 0.083-24 hrs, dose 10 mg/kg, route po.
Data set [6] is described as follows: Half life in Sprague-Dawley rat measured at 10 mg/kg, po for 0.083 to 24 hrs by LC-MS/MS analysis. Format: ADME, organism-based. The following applies: in vivo, time 0.083-24 hrs.
Data set [7] in a line: Tmax in Sprague-Dawley rat measured at 10 mg/kg, po for 0.083 to 24 hrs by LC-MS/MS analysis. Format: ADME, organism-based. The following applies: in vivo, time 0.083-24 hrs.
A short description of data set [8]: AUC (0 to t) in Sprague-Dawley rat measured at 10 mg/kg, po for 0.083 to 24 hrs by LC-MS/MS analysis. Format: ADME, organism-based. On the set-up: dose 10 mg/kg, time upper 24 hrs, time lower 0.083 hrs, route po. The following applies: in vivo.
Data set [9] can be described thus: AUC (0 to infinity) in Sprague-Dawley rat measured at 10 mg/kg, po for 0.083 to 24 hrs by LC-MS/MS analysis. Format: ADME, organism-based. On the set-up: dose 10 mg/kg, time upper 24 hrs, time lower 0.083 hrs, route po. The following applies: in vivo.
Data set [10] is described as follows: Cmax in Sprague-Dawley rat measured at 60 mg/kg, po for 0.083 to 24 hrs by LC-MS/MS analysis. On the set-up: dose 60 mg/kg, time 0.083-24 hrs, route po. Format: ADME, organism-based. Particulars: in vivo.
The nature of data set [11]: Cmax in Sprague-Dawley rat measured at 100 mg/kg, po for 0.083 to 24 hrs by LC-MS/MS analysis. Format: ADME, organism-based. On the set-up: time upper 24 hrs, dose 100 mg/kg, time lower 0.083 hrs, route po. Particulars: in vivo.
Data set [12] can be described thus: Half life in Sprague-Dawley rat measured at 30 mg/kg, po for 0.083 to 24 hrs by LC-MS/MS analysis. In kind it is ADME, organism-based. The following applies: in vivo, time 0.083-24 hrs.
Data set [13] in a line: Half life in Sprague-Dawley rat measured at 60 mg/kg, po for 0.083 to 24 hrs by LC-MS/MS analysis. In kind it is ADME, organism-based. Particulars: in vivo, time 0.083-24 hrs.
Data set [14] is described as follows: Tmax in Sprague-Dawley rat measured at 100 mg/kg, po for 0.083 to 24 hrs by LC-MS/MS analysis. The following applies: in vivo, time 0.083-24 hrs. In kind it is ADME, organism-based.
Data set [15] in a line: AUC(0 to t) in Sprague-Dawley rat measured at 60 mg/kg, po for 0.083 to 24 hrs by LC-MS/MS analysis. Format: ADME, organism-based. Details: time upper 24 hrs, time lower 0.083 hrs, dose 60 mg/kg, route po. The following applies: in vivo.
Another data set has as its system HT-29. Put plainly: Antiproliferative activity against human HT-29 cells incubated for 72 hrs by Cell counting kit 8 method. In kind it is functional, cell-based. Particulars: HT-29, 72 h.
Another data set relates to NCI-H1581. The data set is described as follows: Antiproliferative activity against human NCI-H1581 cells incubated for 72 hrs by Cell counting kit 8 method. The following applies: NCI-H1581, 72 h. Format: functional, cell-based.
In data set [16] the test system is Huh-7. Put plainly: Antitumor activity against human Huh-7 cells xenografted in BALB/c nude mouse assessed as reduction in tumor growth once daily administered orally for 24 days. The following applies: dose 15-60 mg/kg, route po, time 24.0 day. Format: functional. Background: A xenograft is tissue or cells of one species grown in another, often human tumour cells in immunodeficient mice.

Data set [17] deals with Huh-7. Put plainly: Antitumor activity against human Huh-7 cells xenografted in BALB/c nude mouse assessed as tumor growth inhibition once daily at 60 mg/kg, po for 24 days relative to control. In kind it is functional. On the set-up: scale not given: the % may be the effect or the level left. The following applies: time 24 day.

One may read the half-life as how long it takes for the measured level to halve. As a reminder, the Tmax is the time from dosing to the highest level. In general, AUC(0-inf) refers to total exposure, with the tail of the curve extrapolated. The MRT is a mean duration of stay, worked out from the concentration-time curve. As a reminder, the Cmax is the highest concentration seen after dosing. The term AUC(0-t) denotes exposure summed from dosing to a finite time, without extrapolation to infinity. By IC50 is commonly meant the concentration needed to halve the response being measured. Take `C=CC(=O)N1CCC(c2cc3c(Oc4ccc(NC(=O)NC5CC5)c(Cl)c4)ccnc3cc2OC)CC1`: the half-life was 15.6 min in data set [1], 149 min in [6], 193 min in [12] and 145 min in data set [13]. Besides, the results for the Tmax in data set [2], in [7] and in data set [14] were 4.8 min, 15 min and 30 min, respectively. For the same compound, the AUC(0-inf) in [3] was found to be 572 ng·h/mL; in data set [9], 1970 ng·h/mL. Further, in data set [4], the mean residence time MRT is 11.4 min. For the same compound, the results for the peak concentration (Cmax) in data set [5], in data set [10] and in [11] were 1800 ng/mL, 7990 ng/mL and 14600 ng/mL, respectively. Further, the results for the AUC(0-t) in data set [8] and in [15] were 1730 ng·h/mL and 14900 ng·h/mL, respectively. Besides, the IC50 was 7.23 µM with HT-29 and less than 0.00031 µM in the data set with NCI-H1581. Besides, the Activity entry in the data set on Huh-7 [16] was “Dose-Dependent Effect”; with Huh-7 [17] it was 88.2%.
